Measured values published in patent publication US6914045B2, “Glycopeptide antibiotics” (Wyeth Holdings Corporation, priority 2001, dated 2005).
≈ marks a conversion by molar mass, not a printed value.

Experiments:
Staphylococcus sp. = experiment: in vitro antibacterial evaluation, MIC by broth dilution; type: cell-based
Procedure, shortened: (§1)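 Step 1: dilute antibiotic across 64-0.06 μg/mL in Muller-Hinton II […]. Step 2: inoculate at 5×10^5 CFU/mL.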

Enterococcus sp. = experiment: as above; type: cell-based; settings: broth dilution, 18 hours at 35° C.
Procedure, shortened: as §1

Escherichia coli = experiment: as above; type: cell-based; settings: 18 hours at 35° C.
Procedure, shortened: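 MIC is the lowest antibiotic concentration (tested 64-0.06 μg/mL) preventing growth of a 5×10^5 CFU/mL inoculum. Determined by broth dilution in Mueller-Hinton II medium following NCCLS standard M7-A2.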

[1] = tested on: Staphylococcus aureus-SMITH (GC 4543); experiment: acute lethal infection in mice; type: in vivo; settings: acute lethal infection, female CD-1 mice, intraperitoneal challenge, intravenous 30 min. after infection, 7 day survival
Protocol: Methods for in Vivo Antibacterial Evaluation
The therapeutic effects of glycopeptide antibiotics of Formula I are determined against acute lethal infections with S. aureus (strain Smith), a penicillin resistant strain of S. pneumoniae (strain GC 1894), and a vancomycin resistant strain of E. fecalis (strain GC 6189 and GC 2246). Female mice, CD-1 (Charles River Laboratories), 20+/−2 gm, are challenged by intraperitoneal injection of sufficient bacteria (suspended in /trypticase Soy Broth or hog gastric mucin) to kill non-treated controls within 24-48 hr. Antibacterial agents, contained in 0.2 mL of saline or 5% dextrose solution, are administered intravenously 30 min. after infection. Five mice are treated at each dose level. The 7 day survival ratios from 3 separate tests are pooled for calculation of median effective dose (ED50).

[2] = anatomic pathology (histopathology of heart and kidney) in mice; type: in vivo; settings: CD-1 mice, 20 mg/kg intravenously daily for 9 days, necropsy day 10, microscopic histopathology
Protocol: Samples of tissues from necropsied mice were formalin-fixed, paraffin-embedded, sectioned, stained with hematoxylin and eosin, and examined microscopically. Histopathologic findings were recorded. These findings were subjectively graded on a scale corresponding to slight, mild, moderate, marked and severe as compared to untreated controls.

Streptococcus sp. = experiment: in vitro antibacterial evaluation, MIC by broth dilution; type: cell-based; settings: broth dilution, 18 hours at 35° C.
Procedure, shortened: as §1

[3] = broth dilution, 18 hours at 35° C.
[4] = strain ATCC 29213; broth dilution, 18 hours at 35° C.
[5] = strain GC 1131; broth dilution, 18 hours at 35° C.
[6] = strain GC 4535; broth dilution, 18 hours at 35° C.
[7] = strain GC 4536; broth dilution, 18 hours at 35° C.
[8] = Enterococcus faecalis (ATCC 29212)
[9] = Enterococcus faecalis (GC 4552)
[10] = strain GC 4547; broth dilution, 18 hours at 35° C.

CCCCCCC(=O)OCC1OC(OC2C(CO)OC(Oc3ccc(CC4NC(=O)C(C(C)c5ccccc5)NC(=O)CNC(=O)C(CO)NC(=O)C(C(O)C5CNC(=N)N5C5OC(CO)C(O)C(O)C5O)NC(=O)C(C(O)C5CNC(=N)N5)NC4=O)cc3)C(O)C2O)C(O)C(O)C1O (stereo not drawn) [Example 97b, Cyclo[glycyl-β-methylphenylalanyl-O-[4-O-(6-O-heptanoylhexopyranosyl)hexopyranosyl]-tyrosyl-3-(2-iminoimidazolidin-4-yl)seryl-3-(3-hexopyranosyl-2-iminoimidazolidin-4-yl)-serylseryl]]
MIC Coagulase Negative Staphylococcus (GC 4537) (Staphylococcus sp.; [3]): 1 µg/mL (≈ 0.711 µM)
MIC Coagulase Negative Staphylococcus (GC 4538) (Staphylococcus sp.; [3]): 1 µg/mL (≈ 0.711 µM)
MIC Coagulase Negative Staphylococcus (GC 4547) (Staphylococcus sp.; [3]): 1 µg/mL (≈ 0.711 µM)
MIC Coagulase Negative Staphylococcus (GC 4537) (Staphylococcus sp.; broth dilution, 18 hours at 35° C.; strain GC 4537): 1 µg/mL (≈ 0.711 µM)
MIC Coagulase Negative Staphylococcus (GC 4538) (Staphylococcus sp.; broth dilution, 18 hours at 35° C.; strain GC 4538): 1 µg/mL (≈ 0.711 µM)
MIC Coagulase Negative Staphylococcus (GC 4547) (Staphylococcus sp.; broth dilution, 18 hours at 35° C.; strain GC 4547): 1 µg/mL (≈ 0.711 µM)
MIC Staphylococcus aureus (ATCC 29213) (Staphylococcus sp.; [4]): 1 µg/mL (≈ 0.711 µM)
MIC Staphylococcus aureus (GC 1131) (Staphylococcus sp.; [5]): 1 µg/mL (≈ 0.711 µM)
MIC Staphylococcus aureus (GC 4535) (Staphylococcus sp.; [6]): 1 µg/mL (≈ 0.711 µM)
MIC Staphylococcus aureus-SMITH (GC 4536) (Staphylococcus sp.; [7]): 0.5 µg/mL (≈ 0.355 µM)
MIC Enterococcus faecalis (ATCC 29212) (Enterococcus sp.; [8]): 4 µg/mL (≈ 2.84 µM)
MIC Enterococcus faecalis (GC 2242) (Enterococcus sp.; Enterococcus faecalis (GC 2242)): 2 µg/mL (≈ 1.42 µM)
MIC Enterococcus faecalis (GC 4552) (Enterococcus sp.; [9]): 4 µg/mL (≈ 2.84 µM)
MIC Enterococcus faecalis (ATCC 29212) (Enterococcus sp.): 4 µg/mL (≈ 2.84 µM)
MIC Enterococcus faecalis (GC 2242) (Enterococcus sp.): 2 µg/mL (≈ 1.42 µM)
MIC Enterococcus faecalis (GC 4552) (Enterococcus sp.): 4 µg/mL (≈ 2.84 µM)
MIC Escherichia coli (GC 4559) (Escherichia coli): 32 µg/mL (≈ 22.7 µM)
MIC Escherichia coli (GC 4560) (Escherichia coli): 1 µg/mL (≈ 0.711 µM)
median effective dose (ED50), Staphylococcus aureus-SMITH (GC 4543) [1]: 8 mg/kg

CC(c1ccccc1)C1NC(=O)CNC(=O)C(CO)NC(=O)C(C(O)C2CNC(=NCc3ccccc3)N2C2OC(CO)C(O)C(O)C2O)NC(=O)C(C(O)C2CNC(=N)N2)NC(=O)C(Cc2ccc(OC3OC(CO)C(OC4OC5COC6(OC5C(O)C4O)C4CC5CC(C4)CC6C5)C(O)C3O)cc2)NC1=O (stereo not drawn) [Example 76, Cyclo[glycyl-β-methylphenylalanyl-O-[4-O-[4,6-O-(2-adamantylidene)hexopyranosyl]hexopyranosyl]tyrosyl-3-(2-iminoimidazolidin-4-yl)seryl-3-[2-(benzylimino)-3-hexopyranosylimidazolidin-4-yl]serylseryl]]
Anatomical Pathology (Day 10), Heart [2]: 0
Anatomical Pathology (Day 10), Kidney [2]: ++
MIC Staphylococcus aureus (ATCC 29213) (Staphylococcus sp.; [4]): 2 to 8 µg/mL
MIC Staphylococcus aureus (GC 1131) (Staphylococcus sp.; [5]): 4 to 8 µg/mL
MIC Staphylococcus aureus (GC 3051) (Staphylococcus sp.; strain GC 3051; broth dilution, 18 hours at 35° C.): 2 to 8 µg/mL
MIC Staphylococcus aureus (GC 3053) (Staphylococcus sp.; strain GC 3053; broth dilution, 18 hours at 35° C.): 2 to 8 µg/mL
MIC Staphylococcus aureus (GC 4541) (Staphylococcus sp.; strain GC 4541; broth dilution, 18 hours at 35° C.): 2 to 4 µg/mL
MIC Staphylococcus aureus (GC 4542) (Staphylococcus sp.; strain GC 4542; broth dilution, 18 hours at 35° C.): 2 to 8 µg/mL
MIC Staphylococcus aureus-SMITH (GC 4543) (Staphylococcus sp.; strain GC 4543; broth dilution, 18 hours at 35° C.): 1 to 4 µg/mL
MIC Staphylococcus aureus (GC 4544) (Staphylococcus sp.; strain GC 4544; broth dilution, 18 hours at 35° C.): 4 to 8 µg/mL
MIC Staphylococcus aureus (GC 4545) (Staphylococcus sp.; strain GC 4545; broth dilution, 18 hours at 35° C.): 2 to 8 µg/mL
MIC Staphylococcus haemolyticus (GC 4546) (Staphylococcus sp.; strain GC 4546; broth dilution, 18 hours at 35° C.): 2 to 4 µg/mL
MIC Coagulase Negative Staphylococcus (GC 4547) (Staphylococcus sp.; [10]): 2 to 4 µg/mL
MIC Coagulase Negative Staphylococcus (GC 4548) (Staphylococcus sp.; strain GC 4548; broth dilution, 18 hours at 35° C.): 2 to 4 µg/mL
MIC Coagulase Negative Staphylococcus (GC 4549) (Staphylococcus sp.; strain GC 4549; broth dilution, 18 hours at 35° C.): 2 to 4 µg/mL
MIC Coagulase Negative Staphylococcus (GC 4551) (Staphylococcus sp.; strain GC 4551; broth dilution, 18 hours at 35° C.): 2 to 8 µg/mL
MIC Coagulase Negative Staphylococcus (GC 6257) (Staphylococcus sp.; strain GC 6257; broth dilution, 18 hours at 35° C.): 0.5 to 2 µg/mL
MIC Enterococcus avium (GC 4558) (Enterococcus sp.; Enterococcus avium (GC 4558)): 2 to 8 µg/mL
MIC Enterococcus faecalis (GC 4553) (Enterococcus sp.; Enterococcus faecalis (GC 4553)): 4 to 8 µg/mL
MIC Enterococcus faecium (GC 2243) (Enterococcus sp.; Enterococcus faecium (GC 2243)): 2 to 8 µg/mL
MIC Enterococcus faecium (GC 4557) (Enterococcus sp.; Enterococcus faecium (GC 4557)): 1 to 2 µg/mL
MIC Enterococcus avium (GC 4558) (Enterococcus sp.): 2 to 8 µg/mL
MIC Enterococcus faecalis (ATCC 29212) (Enterococcus sp.): 4 to 16 µg/mL
MIC Enterococcus faecalis (GC 2242) (Enterococcus sp.): 4 to 16 µg/mL
MIC Enterococcus faecalis (GC 2691) (Enterococcus sp.): 4 to 16 µg/mL
MIC Enterococcus faecalis (GC 3059) (Enterococcus sp.): 4 to 32 µg/mL
MIC Enterococcus faecalis (GC 4552) (Enterococcus sp.): 4 to 16 µg/mL
MIC Enterococcus faecalis (GC 4553) (Enterococcus sp.): 4 to 8 µg/mL
MIC Enterococcus faecalis (GC 4554) (Enterococcus sp.): 4 to 32 µg/mL
MIC Enterococcus faecalis (GC 6189) (Enterococcus sp.): 4 to 16 µg/mL
MIC Enterococcus faecium (GC 2243) (Enterococcus sp.): 2 to 8 µg/mL
MIC Enterococcus faecium (GC 4556) (Enterococcus sp.): 4 to 16 µg/mL
MIC Enterococcus faecium (GC 4557) (Enterococcus sp.): 1 to 2 µg/mL
MIC Streptococcus agalactiae (GC 4564) (Streptococcus sp.): 0.25 to 2 µg/mL
MIC Streptococcus pneumoniae (ATCC 6301) (Streptococcus sp.): <0.12 to 1 µg/mL
MIC Streptococcus pneumoniae (GC 1894) (Streptococcus sp.): <0.06 to 0.25 µg/mL
MIC Streptococcus pneumoniae (GC 4565) (Streptococcus sp.): 0.25 to 4 µg/mL
MIC Streptococcus pyogenes (GC 4563) (Streptococcus sp.): 0.25 to 2 µg/mL
MIC Escherichia coli (GC 4560) (Escherichia coli): 2 to 4 µg/mL

CCCCCC(=O)OCC1OC(OC2C(CO)OC(Oc3ccc(CC4NC(=O)C(C(C)c5ccccc5)NC(=O)CNC(=O)C(CO)NC(=O)C(C(O)C5CNC(=N)N5C5OC(CO)C(O)C(O)C5O)NC(=O)C(C(O)C5CNC(=N)N5)NC4=O)cc3)C(O)C2O)C(O)C(O)C1O (stereo not drawn) [Example 95b, Cyclo[glycyl-β-methylphenylalanyl-O-[4-O-(6-O-hexanoylhexopyranosyl)hexopyranosyl]-tyrosyl-3-(2-iminoimidazolidin-4-yl)seryl-3-(3-hexopyranosyl-2-iminoimidazolidin-4-yl)-serylseryl]]
MIC Coagulase Negative Staphylococcus (GC 4537) (Staphylococcus sp.; [3]): 2 µg/mL (≈ 1.44 µM)
MIC Coagulase Negative Staphylococcus (GC 4538) (Staphylococcus sp.; [3]): 1 µg/mL (≈ 0.718 µM)
MIC Coagulase Negative Staphylococcus (GC 4547) (Staphylococcus sp.; [3]): 1 µg/mL (≈ 0.718 µM)
MIC Staphylococcus aureus (ATCC 29213) (Staphylococcus sp.; [4]): 1 µg/mL (≈ 0.718 µM)
MIC Staphylococcus aureus (GC 1131) (Staphylococcus sp.; [5]): 1 µg/mL (≈ 0.718 µM)
MIC Staphylococcus aureus (GC 4535) (Staphylococcus sp.; [6]): 2 µg/mL (≈ 1.44 µM)
MIC Staphylococcus aureus-SMITH (GC 4536) (Staphylococcus sp.; [7]): 1 µg/mL (≈ 0.718 µM)
MIC Coagulase Negative Staphylococcus (GC 4537) (Staphylococcus sp.; strain GC 4537; broth dilution, 18 hours at 35° C.): 2 µg/mL (≈ 1.44 µM)
MIC Coagulase Negative Staphylococcus (GC 4538) (Staphylococcus sp.; strain GC 4538; broth dilution, 18 hours at 35° C.): 1 µg/mL (≈ 0.718 µM)
MIC Coagulase Negative Staphylococcus (GC 4547) (Staphylococcus sp.; [10]): 1 µg/mL (≈ 0.718 µM)
MIC Enterococcus faecalis (ATCC 29212) (Enterococcus sp.; [8]): 4 µg/mL (≈ 2.87 µM)
MIC Enterococcus faecalis (GC 4552) (Enterococcus sp.; [9]): 8 µg/mL (≈ 5.74 µM)
MIC Enterococcus faecalis (ATCC 29212) (Enterococcus sp.): 4 µg/mL (≈ 2.87 µM)
MIC Enterococcus faecalis (GC 2242) (Enterococcus sp.): 8 µg/mL (≈ 5.74 µM)
MIC Enterococcus faecalis (GC 4552) (Enterococcus sp.): 8 µg/mL (≈ 5.74 µM)
MIC Enterococcus faecalis (GC 2242) (Enterococcus sp.; strain GC 2242): 8 µg/mL (≈ 5.74 µM)
MIC Escherichia coli (GC 4559) (Escherichia coli): 64 µg/mL (≈ 45.9 µM)
MIC Escherichia coli (GC 4560) (Escherichia coli): <0.5 µg/mL
median effective dose (ED50), Staphylococcus aureus-SMITH (GC 4543) [1]: 4 mg/kg
